For assay [1], the target named is T1, ABL1(H396P)-phosphorylated (Homo sapiens, UniProt P00519, H396P).
T1 construct: purchased Eurofins DiscoverX KINOMEscan (scanTK)
Briefly: KINOMEscan ScanTK. Type of assay: binding.

The target in assay [2] is T2, AXL (Homo sapiens, UniProt P30530).
T2 construct: purchased Eurofins DiscoverX KINOMEscan (scanTK)
T2 sequence (P30530 26-894): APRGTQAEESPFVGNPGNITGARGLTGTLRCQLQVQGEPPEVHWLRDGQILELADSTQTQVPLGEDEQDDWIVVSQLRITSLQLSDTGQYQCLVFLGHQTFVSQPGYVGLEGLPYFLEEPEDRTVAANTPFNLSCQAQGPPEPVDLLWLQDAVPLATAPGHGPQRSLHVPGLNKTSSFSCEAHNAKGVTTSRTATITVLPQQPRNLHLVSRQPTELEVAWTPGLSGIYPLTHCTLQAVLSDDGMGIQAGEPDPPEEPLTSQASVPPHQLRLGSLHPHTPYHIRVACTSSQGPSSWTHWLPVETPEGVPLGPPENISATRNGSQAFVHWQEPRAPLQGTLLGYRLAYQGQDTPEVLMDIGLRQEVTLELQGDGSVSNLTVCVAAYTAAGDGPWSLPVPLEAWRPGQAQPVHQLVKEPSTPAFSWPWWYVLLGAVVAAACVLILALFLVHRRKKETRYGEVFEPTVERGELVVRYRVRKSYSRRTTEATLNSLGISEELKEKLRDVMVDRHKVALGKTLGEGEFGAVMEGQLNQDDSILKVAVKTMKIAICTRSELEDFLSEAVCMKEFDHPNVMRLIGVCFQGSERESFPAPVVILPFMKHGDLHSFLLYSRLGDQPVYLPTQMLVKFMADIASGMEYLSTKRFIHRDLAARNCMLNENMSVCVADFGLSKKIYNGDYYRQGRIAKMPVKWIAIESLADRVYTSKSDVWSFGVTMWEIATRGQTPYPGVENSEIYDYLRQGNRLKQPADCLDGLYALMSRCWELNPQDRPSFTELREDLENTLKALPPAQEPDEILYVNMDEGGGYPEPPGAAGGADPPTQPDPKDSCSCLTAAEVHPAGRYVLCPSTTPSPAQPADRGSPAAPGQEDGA
Briefly: KINOMEscan ScanTK. Type of assay: binding.

Assay [3] has as its target T3, BMX (Homo sapiens, UniProt P51813).
T3 construct: purchased Eurofins DiscoverX KINOMEscan (scanTK)
T3 sequence (P51813 1-675): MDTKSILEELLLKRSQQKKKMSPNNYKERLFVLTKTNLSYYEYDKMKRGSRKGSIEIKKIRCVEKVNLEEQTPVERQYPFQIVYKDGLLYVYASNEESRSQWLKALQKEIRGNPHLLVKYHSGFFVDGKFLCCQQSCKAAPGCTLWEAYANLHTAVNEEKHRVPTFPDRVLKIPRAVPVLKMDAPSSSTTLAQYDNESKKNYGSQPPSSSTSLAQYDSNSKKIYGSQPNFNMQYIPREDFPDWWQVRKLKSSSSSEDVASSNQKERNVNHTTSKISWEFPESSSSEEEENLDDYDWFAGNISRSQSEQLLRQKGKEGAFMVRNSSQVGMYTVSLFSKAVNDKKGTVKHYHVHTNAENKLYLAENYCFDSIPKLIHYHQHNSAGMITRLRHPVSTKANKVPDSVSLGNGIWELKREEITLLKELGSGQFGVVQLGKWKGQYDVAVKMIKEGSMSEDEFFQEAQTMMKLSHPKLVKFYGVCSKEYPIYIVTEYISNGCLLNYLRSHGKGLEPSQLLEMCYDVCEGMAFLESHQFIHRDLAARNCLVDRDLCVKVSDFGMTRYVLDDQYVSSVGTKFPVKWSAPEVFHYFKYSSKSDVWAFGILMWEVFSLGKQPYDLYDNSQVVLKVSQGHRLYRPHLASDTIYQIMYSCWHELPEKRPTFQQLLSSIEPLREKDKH
Put plainly: KINOMEscan ScanTK. In kind it is binding.

The target in assay [4] is T4, EGFR(L747-S752del, P753S) (Homo sapiens, UniProt P00533, DEL747-752/P753S).
T4 construct: purchased Eurofins DiscoverX KINOMEscan (scanTK)
T4 sequence (P00533 with tags, fused parts or gaps DEL747-752/P753S limits assumed): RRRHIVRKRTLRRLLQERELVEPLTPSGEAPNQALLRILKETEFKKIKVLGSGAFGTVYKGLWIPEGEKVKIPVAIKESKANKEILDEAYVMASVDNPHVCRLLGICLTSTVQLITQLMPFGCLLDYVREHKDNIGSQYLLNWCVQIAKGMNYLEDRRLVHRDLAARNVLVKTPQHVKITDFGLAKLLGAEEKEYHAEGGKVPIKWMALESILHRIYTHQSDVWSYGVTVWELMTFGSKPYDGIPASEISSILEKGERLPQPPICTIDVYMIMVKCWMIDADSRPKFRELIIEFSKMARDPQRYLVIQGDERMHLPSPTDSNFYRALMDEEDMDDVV
Briefly: KINOMEscan ScanTK. Type of assay: binding.

For assay [5], the target named is T5, LCK (Homo sapiens, UniProt P06239).
T5 construct: purchased Eurofins DiscoverX KINOMEscan (scanTK)
T5 sequence (P06239 whole entry): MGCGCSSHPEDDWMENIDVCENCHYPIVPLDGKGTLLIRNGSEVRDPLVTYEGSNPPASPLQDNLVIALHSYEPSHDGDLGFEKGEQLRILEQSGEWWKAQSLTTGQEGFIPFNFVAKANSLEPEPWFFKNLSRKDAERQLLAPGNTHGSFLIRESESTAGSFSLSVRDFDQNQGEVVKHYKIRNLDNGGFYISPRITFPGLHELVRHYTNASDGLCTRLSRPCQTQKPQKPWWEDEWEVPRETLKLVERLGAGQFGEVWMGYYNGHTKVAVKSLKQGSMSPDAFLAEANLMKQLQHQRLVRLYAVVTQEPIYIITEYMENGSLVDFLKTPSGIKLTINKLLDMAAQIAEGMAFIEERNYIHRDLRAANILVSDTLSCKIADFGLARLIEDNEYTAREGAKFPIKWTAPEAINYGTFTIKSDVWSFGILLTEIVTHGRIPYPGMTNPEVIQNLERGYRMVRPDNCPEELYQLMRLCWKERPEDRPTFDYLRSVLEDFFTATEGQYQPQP
Briefly: KINOMEscan ScanTK. Type of assay: binding.

Assay [6] addresses T6, LYN (Homo sapiens, UniProt P07948).
T6 construct: purchased Eurofins DiscoverX KINOMEscan (scanTK)
Put plainly: KINOMEscan ScanTK. Type of assay: binding.

Assay [7] concerns the target T7, TNK2 (Homo sapiens, UniProt Q07912).
T7 construct: purchased Eurofins DiscoverX KINOMEscan (scanTK)
Briefly: KINOMEscan ScanTK. In kind it is binding.

For assay [8], the target named is T8, VEGFR2 (Homo sapiens, UniProt P35968).
T8 construct: purchased Eurofins DiscoverX KINOMEscan (scanTK)
T8 sequence (P35968 20-1356): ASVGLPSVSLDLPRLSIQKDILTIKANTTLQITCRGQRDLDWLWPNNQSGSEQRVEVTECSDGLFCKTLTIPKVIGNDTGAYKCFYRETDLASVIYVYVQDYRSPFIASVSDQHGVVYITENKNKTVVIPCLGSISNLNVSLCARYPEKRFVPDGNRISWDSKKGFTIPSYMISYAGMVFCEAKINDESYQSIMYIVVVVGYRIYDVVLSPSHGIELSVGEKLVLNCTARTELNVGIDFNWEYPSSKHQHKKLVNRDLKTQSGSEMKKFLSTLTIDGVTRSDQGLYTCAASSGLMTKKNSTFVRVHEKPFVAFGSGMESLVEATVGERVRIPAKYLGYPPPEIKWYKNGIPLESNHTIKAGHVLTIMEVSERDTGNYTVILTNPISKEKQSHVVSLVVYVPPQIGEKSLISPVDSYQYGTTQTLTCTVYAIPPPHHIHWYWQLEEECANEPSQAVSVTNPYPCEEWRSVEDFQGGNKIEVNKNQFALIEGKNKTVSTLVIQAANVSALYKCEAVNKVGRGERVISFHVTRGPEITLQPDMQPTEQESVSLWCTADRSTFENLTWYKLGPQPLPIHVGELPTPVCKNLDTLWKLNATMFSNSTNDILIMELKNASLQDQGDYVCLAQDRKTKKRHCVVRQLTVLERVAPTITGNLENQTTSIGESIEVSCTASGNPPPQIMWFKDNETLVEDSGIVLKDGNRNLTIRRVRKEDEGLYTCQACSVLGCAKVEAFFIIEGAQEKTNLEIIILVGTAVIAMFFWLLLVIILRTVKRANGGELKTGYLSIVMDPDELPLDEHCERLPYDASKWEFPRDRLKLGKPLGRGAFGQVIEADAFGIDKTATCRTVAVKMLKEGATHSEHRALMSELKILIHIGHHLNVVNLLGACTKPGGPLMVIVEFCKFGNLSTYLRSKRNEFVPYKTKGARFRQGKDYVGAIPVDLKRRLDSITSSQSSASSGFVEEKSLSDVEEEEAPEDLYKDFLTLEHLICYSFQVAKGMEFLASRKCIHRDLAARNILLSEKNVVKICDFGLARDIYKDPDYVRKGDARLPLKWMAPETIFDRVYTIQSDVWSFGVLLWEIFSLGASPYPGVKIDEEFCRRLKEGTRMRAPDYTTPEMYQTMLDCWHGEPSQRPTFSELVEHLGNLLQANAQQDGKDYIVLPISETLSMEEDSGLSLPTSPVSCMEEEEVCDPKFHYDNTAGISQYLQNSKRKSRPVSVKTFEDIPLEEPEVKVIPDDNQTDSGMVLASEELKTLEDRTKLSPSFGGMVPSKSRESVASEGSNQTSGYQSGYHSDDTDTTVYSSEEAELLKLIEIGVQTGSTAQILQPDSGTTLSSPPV
Put plainly: KINOMEscan ScanTK. In kind it is binding.

For assay [9], the target named is JAK3, catalytic domain (795–1124) (Homo sapiens, UniProt P52333). Put plainly: PhosphoSens enzymatic IC50 (AssayQuant).
Sequence of JAK3, catalytic domain (795–1124) (P52333 795-1124): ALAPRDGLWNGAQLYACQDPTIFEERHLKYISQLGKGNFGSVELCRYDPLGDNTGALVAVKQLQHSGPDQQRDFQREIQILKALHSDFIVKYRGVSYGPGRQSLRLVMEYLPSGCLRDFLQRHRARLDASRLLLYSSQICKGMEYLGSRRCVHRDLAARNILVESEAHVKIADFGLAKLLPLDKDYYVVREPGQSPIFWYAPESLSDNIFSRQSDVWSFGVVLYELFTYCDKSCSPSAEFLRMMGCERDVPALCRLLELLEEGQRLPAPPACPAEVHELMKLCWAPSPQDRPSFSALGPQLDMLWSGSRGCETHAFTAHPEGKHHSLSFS
Excerpt: Biochemical enzymatic IC50 data were generated by AssayQuant Technologies (Marlborough, MA) using the PhosphoSens Platform. […] Reaction rate versus log [inhibitor concentration] data were fitted to the four-parameter logistic equation [drawing 1]

Read-outs that look alike come from different tables or passages of the source. Bounds are passed on as bounds.

T7 sequence (Q07912 whole entry): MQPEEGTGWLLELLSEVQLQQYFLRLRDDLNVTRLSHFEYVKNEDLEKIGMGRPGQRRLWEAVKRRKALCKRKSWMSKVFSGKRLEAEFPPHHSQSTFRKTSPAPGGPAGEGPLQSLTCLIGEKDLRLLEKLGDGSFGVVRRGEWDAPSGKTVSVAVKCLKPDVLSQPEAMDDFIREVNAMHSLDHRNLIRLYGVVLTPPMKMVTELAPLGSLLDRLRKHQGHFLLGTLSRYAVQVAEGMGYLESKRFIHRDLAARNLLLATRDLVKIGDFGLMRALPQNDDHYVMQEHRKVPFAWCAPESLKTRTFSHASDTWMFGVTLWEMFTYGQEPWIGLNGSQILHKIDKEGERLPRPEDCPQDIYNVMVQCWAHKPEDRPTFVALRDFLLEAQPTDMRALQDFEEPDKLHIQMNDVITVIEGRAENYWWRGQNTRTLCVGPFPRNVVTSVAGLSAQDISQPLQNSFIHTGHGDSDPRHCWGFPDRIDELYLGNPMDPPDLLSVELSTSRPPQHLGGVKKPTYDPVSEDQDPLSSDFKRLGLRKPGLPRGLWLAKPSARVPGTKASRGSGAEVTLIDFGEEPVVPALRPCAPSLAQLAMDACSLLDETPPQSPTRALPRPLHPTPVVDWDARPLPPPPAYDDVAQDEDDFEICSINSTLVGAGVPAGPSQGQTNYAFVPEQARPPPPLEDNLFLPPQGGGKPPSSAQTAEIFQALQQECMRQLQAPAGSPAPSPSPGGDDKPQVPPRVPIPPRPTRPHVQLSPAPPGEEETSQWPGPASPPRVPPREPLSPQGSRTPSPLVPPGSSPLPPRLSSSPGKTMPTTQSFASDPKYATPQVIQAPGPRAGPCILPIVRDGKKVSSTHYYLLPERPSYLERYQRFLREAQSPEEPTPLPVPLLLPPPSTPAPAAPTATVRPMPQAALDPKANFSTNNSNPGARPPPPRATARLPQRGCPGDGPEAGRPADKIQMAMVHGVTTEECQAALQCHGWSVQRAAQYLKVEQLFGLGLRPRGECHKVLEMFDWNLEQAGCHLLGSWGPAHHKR
T6 sequence (P07948 whole entry): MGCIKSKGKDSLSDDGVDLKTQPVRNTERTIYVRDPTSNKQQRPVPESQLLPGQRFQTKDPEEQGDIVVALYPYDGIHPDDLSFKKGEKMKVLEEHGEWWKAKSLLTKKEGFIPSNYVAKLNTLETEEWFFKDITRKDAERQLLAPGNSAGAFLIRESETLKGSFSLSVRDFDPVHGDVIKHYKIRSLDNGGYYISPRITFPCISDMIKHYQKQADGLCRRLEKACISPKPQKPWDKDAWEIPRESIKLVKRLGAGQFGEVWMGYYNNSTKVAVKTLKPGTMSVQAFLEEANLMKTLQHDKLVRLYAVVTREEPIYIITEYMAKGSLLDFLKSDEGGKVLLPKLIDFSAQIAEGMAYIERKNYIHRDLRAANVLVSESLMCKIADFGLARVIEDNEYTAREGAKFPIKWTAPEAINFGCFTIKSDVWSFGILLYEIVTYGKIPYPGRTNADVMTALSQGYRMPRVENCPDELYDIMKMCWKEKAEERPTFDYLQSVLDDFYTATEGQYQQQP

Consider `CCOC(=O)c1cnc(S(C)(=O)=O)nc1N1CCC[C@@H](n2nc(-c3ccc(Oc4ccccc4)cc3)c3c(N)ncnc32)C1` [Compound 8c, Ethyl (R)-4-(3-(4-Amino-3-(4-phenoxyphenyl)-1H-pyrazolo[3,4-d]pyrimidin-1-yl)piperidin-1-yl)-2-(methylsulfonyl)pyrimidine-5-carboxylate], for which the %Control difference versus compound Ib at 1 µM in [1] (@1000nM) was -3%. In addition, the remaining binding at 1 µM in [1] (@1000nM, read-out: %Control) is 77%; in assay [1] (read-out: %Control @1000nM), 77%; in [2] (@1000nM, read-out: %Control), 100%; in assay [2] (read-out: %Control @1000nM), 100%; in assay [3] (@1000nM, read-out: %Control) it was 69%; in assay [3] (read-out: %Control @1000nM), 69%. For the same compound, the remaining binding at 1 µM is 100% in assay [4] (@1000nM, read-out: %Control); 100% in assay [4] (read-out: %Control @1000nM); 25% in [5] (@1000nM, read-out: %Control); 25% in assay [5] (read-out: %Control @1000nM); 72% in assay [6] (@1000nM, read-out: %Control); 72% in assay [6] (read-out: %Control @1000nM). Further, the remaining binding at 1 µM in assay [7] (@1000nM, read-out: %Control) was 94%; in assay [7] (read-out: %Control @1000nM), 94%; in assay [8] (@1000nM, read-out: %Control), 94%; in assay [8] (read-out: %Control @1000nM) it was 94%. Moreover, the difference in %Control versus compound Ib at 1 µM in assay [2] (@1000nM) was 25%; in assay [3] (@1000nM), 28%; in assay [4] (@1000nM) it was 94.5%.

As for `Cc1cnc(S(C)(=O)=O)nc1N1CCCC(n2nc(-c3ccc(Oc4ccccc4)cc3)c3c(N)ncnc32)C1` (stereo not shown) [Compound 8a, 1-(1-(5-Methyl-2-(methylsulfonyl)pyrimidin-4-yl)piperidin-3-yl)-3-(4-phenoxyphenyl)-1H-pyrazolo[3,4-d]pyrimidin-4-amine], in assay [1] (@1000nM), the %Control difference versus compound Ib at 1 µM is 4%. Besides, the remaining binding at 1 µM was determined as 84% in assay [1] (@1000nM, read-out: %Control); 84% in assay [1] (read-out: %Control @1000nM); 100% in assay [2] (@1000nM, read-out: %Control); 100% in [2] (read-out: %Control @1000nM); 38% in assay [3] (@1000nM, read-out: %Control); 38% in assay [3] (read-out: %Control @1000nM). Also, the remaining binding at 1 µM in assay [4] (@1000nM, read-out: %Control) is 94%; in assay [4] (read-out: %Control @1000nM), 94%; in assay [5] (@1000nM, read-out: %Control) it was 2%; in assay [5] (read-out: %Control @1000nM), 2%; in assay [6] (@1000nM, read-out: %Control), 21%; in assay [6] (read-out: %Control @1000nM), 21%. Besides, the remaining binding at 1 µM in [7] (@1000nM, read-out: %Control) was 96%; in assay [7] (read-out: %Control @1000nM), 96%; in assay [8] (@1000nM, read-out: %Control), 90%; in [8] (read-out: %Control @1000nM), 90%. Moreover, the difference in %Control versus compound Ib at 1 µM in [2] (@1000nM) was 25%; in assay [3] (@1000nM), -3%; in assay [4] (@1000nM) it was 88.5%. Also, in assay [9], the IC50 was over 1000 nM.

As for `C=CC(=O)N1CCC[C@@H](n2nc(-c3ccc(Oc4ccccc4)cc3)c3c(N)ncnc32)C1` [Compound 1g, Ibrutinib, reference compound], the remaining binding at 1 µM came out at 80% in assay [1] (@1000nM, read-out: %Control); 80% in assay [1] (read-out: %Control @1000nM); 75% in [2] (@1000nM, read-out: %Control); 75% in [2] (read-out: %Control @1000nM); 16% in assay [6] (@1000nM, read-out: %Control); 16% in [6] (read-out: %Control @1000nM). Besides, the remaining binding at 1 µM was 71% in assay [8] (@1000nM, read-out: %Control) and 71% in [8] (read-out: %Control @1000nM).

Regarding `COC(=O)c1cnc(S(C)(=O)=O)nc1N1CCCC(n2nc(-c3ccc(Oc4ccccc4)cc3)c3c(N)ncnc32)C1` (stereo not shown) [Compound 8b, Methyl 4-(3-(4-Amino-3-(4-phenoxyphenyl)-1H-pyrazolo[3,4-d]pyrimidin-1-yl)piperidin-1-yl)-2-(methylsulfonyl)pyrimidine-5-carboxylate], the %Control difference versus compound Ib at 1 µM in assay [1] (@1000nM) worked out at 12%. In addition, the remaining binding at 1 µM in assay [1] (@1000nM, read-out: %Control) is 92%; in assay [1] (read-out: %Control @1000nM) it was 92%; in [2] (@1000nM, read-out: %Control), 100%; in assay [2] (read-out: %Control @1000nM) it was 100%; in [3] (@1000nM, read-out: %Control) it was 53%; in assay [3] (read-out: %Control @1000nM), 53%. Further, the remaining binding at 1 µM in assay [4] (@1000nM, read-out: %Control) is 95%; in assay [4] (read-out: %Control @1000nM), 95%; in [5] (@1000nM, read-out: %Control), 8.3%; in assay [5] (read-out: %Control @1000nM) it was 8.3%; in assay [6] (@1000nM, read-out: %Control) it was 49%; in [6] (read-out: %Control @1000nM), 49%. The remaining binding at 1 µM in assay [7] (@1000nM, read-out: %Control) stood at 100%; in [7] (read-out: %Control @1000nM), 100%; in assay [8] (@1000nM, read-out: %Control), 90%; in assay [8] (read-out: %Control @1000nM), 90%. Also, the difference in %Control versus compound Ib at 1 µM in [2] (@1000nM) was determined as 25%; in assay [3] (@1000nM), 12%; in assay [4] (@1000nM), 89.5%. The compound further registered a half-maximal inhibitory concentration (IC50) in [9] of over 1000 nM.

On to `CNC(=O)c1cnc(S(C)(=O)=O)nc1N1CCCC(n2nc(-c3ccc(Oc4ccccc4)cc3)c3c(N)ncnc32)C1` (stereo not shown) [Compound 8d, 4-(3-(4-Amino-3-(4-phenoxyphenyl)-1H-pyrazolo[3,4-d]pyrimidin-1-yl)piperidin-1-yl)-N-methyl-2-(methylsulfonyl)pyrimidine-5-carboxamide], for which the %Control difference versus compound Ib at 1 µM in assay [1] (@1000nM) is -1%. For the same compound, the remaining binding at 1 µM in assay [1] (@1000nM, read-out: %Control) was determined as 79%; in assay [1] (read-out: %Control @1000nM), 79%; in assay [2] (@1000nM, read-out: %Control), 97%; in assay [2] (read-out: %Control @1000nM), 97%; in assay [3] (@1000nM, read-out: %Control) it was 61%; in assay [3] (read-out: %Control @1000nM) it was 61%. Further, the remaining binding at 1 µM in assay [4] (@1000nM, read-out: %Control) was 42%; in assay [4] (read-out: %Control @1000nM), 42%; in assay [5] (@1000nM, read-out: %Control) it was 4%; in [5] (read-out: %Control @1000nM) it was 4%; in assay [6] (@1000nM, read-out: %Control), 43%; in assay [6] (read-out: %Control @1000nM), 43%. Also, the remaining binding at 1 µM in assay [7] (@1000nM, read-out: %Control) worked out at 100%; in [7] (read-out: %Control @1000nM), 100%; in assay [8] (@1000nM, read-out: %Control) it was 88%; in assay [8] (read-out: %Control @1000nM), 88%. The values for the difference in %Control versus compound Ib at 1 µM in assay [2] (@1000nM), in assay [3] (@1000nM) and in assay [4] (@1000nM) were 22%, 20% and 36.5%, respectively. This compound returned an IC50 in assay [9] of over 1000 nM.

What is called IC50 is the concentration that inhibits the measured activity by half. A high value points to weaker potency.

These data come from paper PMC11345841, “Exploring 2-Sulfonylpyrimidine Warheads as Acrylamide Surrogates for Targeted Covalent Inhibition: A BTK Story” (Journal of Medicinal Chemistry, 2024).
